Source: patent US20240325398A1, “COMBINATION THERAPIES” (Infinity Pharmaceuticals, Inc., priority 2014, published 2024)

Key:
[1] = test system: OCI-Ly7; assay: Combination study, ATPLite 72 h, dose matrix (Synergy Score, CI50)
[2] = test system: DOHH-2; assay: as above
[3] = test system: SU-DHL-6-epst; assay: Combination study of Compound 1 or CAL-101 and a second therapeutic agent (Synergy Score, CI50); type: cell-based
[4] = test system: SU-DHL-4-epst; assay: Combination study, ATPLite 72 h, dose matrix (Synergy Score, CI50)
[5] = test system: Farage; assay: as above; details: Farage
Description: Cells are thawed from a liquid nitrogen preserved state. Once cells have been expanded and divide at their expected doubling times, screening begins. Cells are seeded in growth media in either black 1536-well or 384-well tissue culture treated plates. Cells are then equilibrated in assay plates via centrifugation and placed in incubators attached to the Dosing Modules at 37° C. for 24 hours before treatment. […] These Tzero (To) plates are read using ultra-sensitive luminescence on Envision plate readers (Perkin Elmer). Treated assay plates are incubated with compound for 72 hours. After 72 hours, plates are developed for endpoint analysis using ATPLite. All data points are collected via automated processes, quality controlled and analyzed using Zalicus software.
where T is treated cell count and V is untreated (vehicle) cell count (at 72 hours). I ranges from 0% (when T=V) to 100% (when T=0). […] The measure of effect in the experiment can be the inhibition of cellular response relative to the untreated level (vehicle alone). […] The inhibition ranges from 0% at the untreated level to 100% when T=0. Inhibition levels are negative for agents that actually increase levels. Other effect measures, such as an activity ratio r=T/V may be more appropriate for some assays. When activity ratios (e.g, fold increase over stimulated control) are being used, the effect can be measured using an induction 1=ln(T/V). With this definition, all effect expressions are the same as for inhibition.
Growth Inhibition (GI) is used as a measure of cell viability. […] A GI reading of 100% represents complete growth inhibition—T72 compound-treated and T0 vehicle signals are matched. […] A GI reading of 200% represents complete death of all cells in the culture well. Compounds reaching an activity plateau of GI 200% are considered cytotoxic. GI is calculated by applying the following test and equation:
Combination analysis data were collected in a 6×6 dose matrix. Synergy is calculated by comparing a combination's response to those of its single compound, against the drug-with-itself dose-additive reference model. Deviations from dose additivity may be assessed visually on an isobologram or numerically with a Combination Index (CI). […] Additive effect is CI=1.0. […] Antagonistic effect is CI>1.0.
The isobologram was drawn by identifying the locus of concentrations that correspond to crossing the indicated inhibition level. This is done by finding the crossing point for each single agent concentration in a dose matrix across the concentrations of the other single agent. Practically, each vertical concentration CY is held fixed while a bisection algorithm is used to identify the horizontal concentration CX in combination with that vertical dose that gives the chosen effect level in the response surface Z(CX,CY). These concentrations are then connected by linear interpolation to generate the isobologram display. For synergistic interactions, the isobologram contour fall below the additivity threshold and approaches the origin, and an antagonistic interaction would lie above the additivity threshold. The error bars represent the uncertainty arising from the individual data points used to generate the isobologram. The uncertainty for each crossing point is estimated from the response errors using bisection to find the concentrations where Z−αZ(CX,CY) and Z+σZ(CX,CY) cross Icut, where αZ is the standard deviation of the residual error on the effect scale.
To measure combination effects in excess of Loewe additivity, a scalar measure to characterize the strength of synergistic interaction termed the Synergy Score is devised. The Synergy Score is calculated as:
The fractional inhibition for each component agent and combination point in the matrix is calculated relative to the median of all vehicle-treated control wells.

CC[C@H](Nc1ncnc2[nH]cnc12)c1nc2cccc(F)c2c(=O)n1-c1ccccc1 [CAL-101]
CI50 growth inhibition ([1]; combination with PCI-32765): W (W=≥1) | Synergy Score growth inhibition ([1]; combination with PCI-32765): A1 (A1=0.0001 to <1) | Synergy Score inhibition ([1]; combination with PCI-32765): A1 (A1=0.0001 to <1) | CI50 growth inhibition ([1]; combination with PD-0332991): S (S=0.01 to <0.5) | CI50 inhibition ([1]; combination with PD-0332991): T (T=0.5 to <0.7) | Synergy Score growth inhibition ([1]; combination with PD-0332991): A2 (A2=1 to <3) | Synergy Score inhibition ([1]; combination with PD-0332991): A2 (A2=1 to <3) | CI50 growth inhibition ([2]; combination with Dexamethasone): T (T=0.5 to <0.7) | CI50 inhibition ([2]; combination with Dexamethasone): U (U=0.7 to <1) | Synergy Score growth inhibition ([2]; combination with Dexamethasone): A3 (A3=>3) | Synergy Score inhibition ([2]; combination with Dexamethasone): A2 (A2=1 to <3) | CI50 growth inhibition ([2]; combination with LEE011): T (T=0.5 to <0.7) | CI50 inhibition ([2]; combination with LEE011): T (T=0.5 to <0.7) | Synergy Score growth inhibition ([2]; combination with LEE011): A3 (A3=>3) | Synergy Score inhibition ([2]; combination with LEE011): A2 (A2=1 to <3) | CI50 growth inhibition ([2]; combination with PCI-32765): S (S=0.01 to <0.5) | CI50 inhibition ([2]; combination with PCI-32765): S (S=0.01 to <0.5) | Synergy Score growth inhibition ([2]; combination with PCI-32765): A3 (A3=>3) | Synergy Score inhibition ([2]; combination with PCI-32765): A3 (A3=>3) | CI50 growth inhibition ([2]; combination with PD-0332991): T (T=0.5 to <0.7) | CI50 inhibition ([2]; combination with PD-0332991): T (T=0.5 to <0.7) | Synergy Score growth inhibition ([2]; combination with PD-0332991): A3 (A3=>3) | Synergy Score inhibition ([2]; combination with PD-0332991): A2 (A2=1 to <3) | CI50 growth inhibition ([3]; combination with Dexamethasone): T (T=0.5 to <0.7) | CI50 inhibition ([3]; combination with Dexamethasone): S (S=0.01 to <0.5) | Synergy Score growth inhibition ([3]; combination with Dexamethasone): A2 (A2=1 to <3) | Synergy Score inhibition ([3]; combination with Dexamethasone): A2 (A2=1 to <3) | CI50 growth inhibition ([3]; combination with LEE011): S (S=0.01 to <0.5) | CI50 inhibition ([3]; combination with LEE011): S (S=0.01 to <0.5) | Synergy Score growth inhibition ([3]; combination with LEE011): A2 (A2=1 to <3) | Synergy Score inhibition ([3]; combination with LEE011): A2 (A2=1 to <3) | CI50 growth inhibition ([3]; combination with PCI-32765): T (T=0.5 to <0.7) | CI50 inhibition ([3]; combination with PCI-32765): T (T=0.5 to <0.7) | Synergy Score growth inhibition ([3]; combination with PCI-32765): A2 (A2=1 to <3) | Synergy Score inhibition ([3]; combination with PCI-32765): A2 (A2=1 to <3) | CI50 growth inhibition ([3]; combination with PD-0332991): T (T=0.5 to <0.7) | CI50 inhibition ([3]; combination with PD-0332991): T (T=0.5 to <0.7) | Synergy Score growth inhibition ([3]; combination with PD-0332991): A2 (A2=1 to <3) | Synergy Score inhibition ([3]; combination with PD-0332991): A2 (A2=1 to <3) | CI50 growth inhibition ([4]; combination with Dexamethasone): S (S=0.01 to <0.5) | CI50 inhibition ([4]; combination with Dexamethasone): S (S=0.01 to <0.5) | Synergy Score growth inhibition ([4]; combination with Dexamethasone): A3 (A3=>3) | Synergy Score inhibition ([4]; combination with Dexamethasone): A3 (A3=>3) | CI50 growth inhibition ([4]; combination with LEE011): S (S=0.01 to <0.5) | CI50 inhibition ([4]; combination with LEE011): T (T=0.5 to <0.7) | Synergy Score growth inhibition ([4]; combination with LEE011): A2 (A2=1 to <3) | Synergy Score inhibition ([4]; combination with LEE011): A2 (A2=1 to <3) | CI50 growth inhibition ([4]; combination with PCI-32765): S (S=0.01 to <0.5) | CI50 inhibition ([4]; combination with PCI-32765): S (S=0.01 to <0.5) | Synergy Score growth inhibition ([4]; combination with PCI-32765): A3 (A3=>3) | Synergy Score inhibition ([4]; combination with PCI-32765): A2 (A2=1 to <3) | CI50 growth inhibition ([4]; combination with PD-0332991): S (S=0.01 to <0.5) | CI50 inhibition ([4]; combination with PD-0332991): S (S=0.01 to <0.5) | Synergy Score growth inhibition ([4]; combination with PD-0332991): A3 (A3=>3) | Synergy Score inhibition ([4]; combination with PD-0332991): A2 (A2=1 to <3) | CI50 growth inhibition ([5]; combination with Dexamethasone): U (U=0.7 to <1) | CI50 inhibition ([5]; combination with Dexamethasone): S (S=0.01 to <0.5) | Synergy Score growth inhibition ([5]; combination with Dexamethasone): A3 (A3=>3) | Synergy Score inhibition ([5]; combination with Dexamethasone): A3 (A3=>3) | CI50 growth inhibition ([5]; combination with LEE011): W (W=≥1) | CI50 inhibition ([5]; combination with LEE011): W (W=≥1) | Synergy Score growth inhibition ([5]; combination with LEE011): A1 (A1=0.0001 to <1) | Synergy Score inhibition ([5]; combination with LEE011): A1 (A1=0.0001 to <1) | CI50 growth inhibition ([5]; combination with PCI-32765): S (S=0.01 to <0.5) | CI50 inhibition ([5]; combination with PCI-32765): S (S=0.01 to <0.5) | Synergy Score growth inhibition ([5]; combination with PCI-32765): A3 (A3=>3) | Synergy Score inhibition ([5]; combination with PCI-32765): A3 (A3=>3) | CI50 growth inhibition ([5]; combination with PD-0332991): T (T=0.5 to <0.7) | CI50 inhibition ([5]; combination with PD-0332991): T (T=0.5 to <0.7) | Synergy Score growth inhibition ([5]; combination with PD-0332991): A2 (A2=1 to <3) | Synergy Score inhibition ([5]; combination with PD-0332991): A1 (A1=0.0001 to <1)
